Experimental data taken from ChEMBL document CHEMBL1909046, “DrugMatrix in vitro pharmacology data”.

Tests used:
[1] = target: T1, C-X-C chemokine receptor type 2 (Homo sapiens, UniProt P25025); assay type: cell membranes, Membrane; conditions: cho-k1; note: in other assays of this panel Not Active means under 50% inhibition at 10 µM
T1 sequence (P25025 whole entry): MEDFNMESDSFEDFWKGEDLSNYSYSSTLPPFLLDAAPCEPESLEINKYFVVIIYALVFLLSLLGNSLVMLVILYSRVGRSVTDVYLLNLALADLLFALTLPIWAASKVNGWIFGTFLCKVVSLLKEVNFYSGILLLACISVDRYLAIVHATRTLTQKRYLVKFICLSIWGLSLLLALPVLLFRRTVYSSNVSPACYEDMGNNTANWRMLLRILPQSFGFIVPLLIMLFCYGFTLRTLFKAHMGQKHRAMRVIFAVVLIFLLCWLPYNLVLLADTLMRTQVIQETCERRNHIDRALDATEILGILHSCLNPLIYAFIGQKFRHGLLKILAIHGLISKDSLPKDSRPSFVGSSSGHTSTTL

Estrogen receptor beta = Estrogen receptor beta (Homo sapiens, UniProt Q92731); conditions: sf9; note: in other assays of this panel Not Active means under 50% inhibition at 10 µM
Sequence of Estrogen receptor beta (Q92731 whole entry): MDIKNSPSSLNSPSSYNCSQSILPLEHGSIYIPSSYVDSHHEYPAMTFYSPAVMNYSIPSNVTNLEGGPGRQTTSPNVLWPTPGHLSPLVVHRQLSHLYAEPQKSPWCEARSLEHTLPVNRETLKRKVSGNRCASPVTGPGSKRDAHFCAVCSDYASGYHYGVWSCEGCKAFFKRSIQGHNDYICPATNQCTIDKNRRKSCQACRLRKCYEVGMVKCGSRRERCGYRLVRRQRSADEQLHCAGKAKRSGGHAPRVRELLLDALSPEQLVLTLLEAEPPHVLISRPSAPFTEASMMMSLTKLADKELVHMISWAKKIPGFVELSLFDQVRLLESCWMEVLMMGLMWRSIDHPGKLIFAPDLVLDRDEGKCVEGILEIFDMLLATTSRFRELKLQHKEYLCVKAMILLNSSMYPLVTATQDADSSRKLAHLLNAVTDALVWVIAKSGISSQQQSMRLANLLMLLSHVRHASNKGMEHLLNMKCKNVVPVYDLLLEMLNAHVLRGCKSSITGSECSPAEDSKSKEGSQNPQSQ

[2] = DRUGMATRIX: Interleukin IL-1 radioligand binding (ligand: [125I] interleukin 1beta); assay type: cell membranes, Membrane; conditions: nih3t3; Not Active = under 50% inhibition at 10 µM
[3] = target: T2, Cholecystokinin receptor type A (Homo sapiens, UniProt P32238); assay type: cell membranes, Membrane; conditions: 1321-n1; note: in other assays of this panel Not Active means under 50% inhibition at 10 µM
T2 sequence (P32238 whole entry): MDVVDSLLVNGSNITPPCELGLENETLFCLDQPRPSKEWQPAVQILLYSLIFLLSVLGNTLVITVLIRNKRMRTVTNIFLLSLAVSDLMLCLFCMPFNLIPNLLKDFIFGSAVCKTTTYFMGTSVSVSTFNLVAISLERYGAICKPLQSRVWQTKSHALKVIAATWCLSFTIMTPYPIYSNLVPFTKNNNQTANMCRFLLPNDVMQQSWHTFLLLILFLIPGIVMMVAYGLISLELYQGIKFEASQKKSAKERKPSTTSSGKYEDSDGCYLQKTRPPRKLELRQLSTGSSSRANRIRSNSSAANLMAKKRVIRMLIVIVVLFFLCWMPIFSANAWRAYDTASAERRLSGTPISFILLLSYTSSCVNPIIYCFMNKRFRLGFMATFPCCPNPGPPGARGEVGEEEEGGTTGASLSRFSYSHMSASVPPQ

D(4) dopamine receptor = target: T3, D(4) dopamine receptor (Homo sapiens, UniProt P21917); assay: DRUGMATRIX: Dopamine D4.2 radioligand binding (ligand: [3H] Spiperone); assay type: cell membranes, CHO-K1, Membrane; conditions: cho-k1; Not Active = under 50% inhibition at 10 µM
T3 sequence (P21917 whole entry): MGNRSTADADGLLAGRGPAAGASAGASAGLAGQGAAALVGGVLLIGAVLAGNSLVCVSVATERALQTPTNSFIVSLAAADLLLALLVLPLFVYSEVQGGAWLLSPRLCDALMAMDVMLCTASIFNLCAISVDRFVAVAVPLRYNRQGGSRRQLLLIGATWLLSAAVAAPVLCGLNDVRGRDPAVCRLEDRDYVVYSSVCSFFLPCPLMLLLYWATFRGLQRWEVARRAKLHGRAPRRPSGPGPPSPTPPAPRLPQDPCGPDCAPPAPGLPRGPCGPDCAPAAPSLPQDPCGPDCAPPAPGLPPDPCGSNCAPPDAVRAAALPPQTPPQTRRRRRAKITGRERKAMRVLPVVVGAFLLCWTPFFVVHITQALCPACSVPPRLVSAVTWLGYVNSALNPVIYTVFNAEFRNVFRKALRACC

[4] = target: Prostaglandin G/H synthase 1 (Homo sapiens, UniProt P23219); assay: biochemical; assay type: tissue-based, Platelet;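 note: inhibition of COX-1 enzyme activity, with arachidonic acid supplied as substrate; in other assays of this panel Not Active means under 50% inhibition at 10 µM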
Sequence of Prostaglandin G/H synthase 1 (P23219 whole entry): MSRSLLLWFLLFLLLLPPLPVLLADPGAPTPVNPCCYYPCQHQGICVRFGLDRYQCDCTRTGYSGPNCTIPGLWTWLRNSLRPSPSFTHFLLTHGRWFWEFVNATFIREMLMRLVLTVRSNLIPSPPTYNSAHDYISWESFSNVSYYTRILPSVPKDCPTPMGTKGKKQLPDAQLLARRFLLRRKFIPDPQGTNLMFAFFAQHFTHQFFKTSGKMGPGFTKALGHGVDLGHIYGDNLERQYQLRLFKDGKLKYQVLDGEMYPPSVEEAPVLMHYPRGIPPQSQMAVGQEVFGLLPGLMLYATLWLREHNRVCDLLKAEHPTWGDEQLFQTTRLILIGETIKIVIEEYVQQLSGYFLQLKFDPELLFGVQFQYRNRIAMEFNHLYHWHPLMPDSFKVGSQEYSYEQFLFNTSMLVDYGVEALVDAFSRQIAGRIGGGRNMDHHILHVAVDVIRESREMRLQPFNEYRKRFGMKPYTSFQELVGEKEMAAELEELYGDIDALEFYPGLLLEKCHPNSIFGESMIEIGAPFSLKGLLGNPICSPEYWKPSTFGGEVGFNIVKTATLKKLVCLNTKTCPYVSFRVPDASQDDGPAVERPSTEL

Acetylcholinesterase = Acetylcholinesterase (Homo sapiens, UniProt P22303); assay: DRUGMATRIX: Acetylcholinesterase enzyme inhibition (substrate: acetylthiocholine); assay type: cell-based, HEK293; conditions: hek293; Not Active = under 50% inhibition at 10 µM
Sequence of Acetylcholinesterase (P22303 whole entry): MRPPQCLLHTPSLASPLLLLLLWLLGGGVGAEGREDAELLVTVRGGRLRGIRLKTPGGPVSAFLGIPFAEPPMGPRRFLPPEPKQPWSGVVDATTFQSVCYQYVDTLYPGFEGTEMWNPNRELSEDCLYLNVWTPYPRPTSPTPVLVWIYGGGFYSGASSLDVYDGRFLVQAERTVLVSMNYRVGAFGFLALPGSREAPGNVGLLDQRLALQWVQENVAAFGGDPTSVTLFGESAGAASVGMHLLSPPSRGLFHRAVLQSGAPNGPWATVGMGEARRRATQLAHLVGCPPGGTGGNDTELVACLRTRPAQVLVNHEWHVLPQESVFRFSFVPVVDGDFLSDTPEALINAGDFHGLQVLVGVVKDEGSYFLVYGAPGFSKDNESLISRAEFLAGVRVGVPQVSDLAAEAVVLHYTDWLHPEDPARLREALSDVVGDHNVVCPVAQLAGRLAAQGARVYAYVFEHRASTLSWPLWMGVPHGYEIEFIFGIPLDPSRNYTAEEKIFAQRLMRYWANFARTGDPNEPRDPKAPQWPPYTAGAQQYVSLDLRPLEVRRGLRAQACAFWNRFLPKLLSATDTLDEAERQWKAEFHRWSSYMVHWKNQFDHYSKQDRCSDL

[5] = target: Sigma non-opioid intracellular receptor 1 (Homo sapiens, UniProt Q99720); assay: DRUGMATRIX: Sigma1 radioligand binding (ligand: [3H] Haloperidol); assay type: cell membranes, Jurkat, Membrane; conditions: jurkat; Not Active = under 50% inhibition at 10 µM
Sequence of Sigma non-opioid intracellular receptor 1 (Q99720 whole entry): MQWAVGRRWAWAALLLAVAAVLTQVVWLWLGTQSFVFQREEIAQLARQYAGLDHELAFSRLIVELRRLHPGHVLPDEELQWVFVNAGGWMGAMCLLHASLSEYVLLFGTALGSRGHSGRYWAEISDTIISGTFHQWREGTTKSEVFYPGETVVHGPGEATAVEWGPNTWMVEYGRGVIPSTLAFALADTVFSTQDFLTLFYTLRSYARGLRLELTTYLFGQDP

SMILES | IC50 [1] | IC50 (Estrogen receptor beta) | IC50 [2] | Ki [2] | IC50 [3] | IC50 (D(4) dopamine receptor) | IC50 ([4]; platelet) | IC50 (Acetylcholinesterase) | IC50 [5] | IC50 ([4]; read-out: IC50)
CC(C)NCC(O)COc1cccc2[nH]ccc12 (stereo not drawn) [PINDOLOL] | Not Active | Not Active | Not Active | Not Active | Not Active | Not Active | Not Active | Not Active | Not Active | –
O=C(N/N=C/c1ccc([N+](=O)[O-])o1)c1cc([N+](=O)[O-])cc([N+](=O)[O-])c1O [NIFURSOL] | Not Active | Not Active | Not Active | Not Active | Not Active | Not Active | Not Active | Not Active | Not Active | –
COc1cc2nc(N3CCN(C(=O)c4ccco4)CC3)nc(N)c2cc1OC [PRAZOSIN] | Not Active | Not Active | Not Active | Not Active | Not Active | Not Active | Not Active | Not Active | Not Active | –
CC(C)NNC(=O)c1ccncc1 [IPRONIAZID] | Not Active | Not Active | Not Active | Not Active | Not Active | Not Active | Not Active | Not Active | Not Active | –
COc1cc([C@@H]2c3cc4c(cc3[C@@H](O[C@@H]3O[C@@H]5CO[C@@H](C)O[C@H]5[C@H](O)[C@H]3O)[C@H]3COC(=O)[C@H]23)OCO4)cc(OC)c1O [ETOPOSIDE] | Not Active | Not Active | Not Active | Not Active | Not Active | Not Active | Not Active | Not Active | Not Active | –
CC(C(=O)O)c1cccc(Oc2ccccc2)c1 (stereo not drawn) [FENOPROFEN] | Not Active | Not Active | Not Active | Not Active | Not Active | Not Active | – | Not Active | Not Active | 145 nM
C#C[C@]1(OC(C)=O)CC[C@H]2[C@@H]3CCC4=C[C@@H](OC(C)=O)CC[C@@H]4[C@H]3CC[C@@]21C [ETHYNODIOL DIACETATE] | Not Active | Not Active | Not Active | Not Active | Not Active | Not Active | Not Active | Not Active | Not Active | –
CN1[C@@H]2CC[C@H]1C[C@@H](OC(=O)C(CO)c1ccccc1)C2 (stereo partly drawn) [ATROPINE] | Not Active | Not Active | Not Active | Not Active | Not Active | Not Active | Not Active | Not Active | Not Active | –
Oc1cccc(O)c1O [PYROGALLOL] | Not Active | Not Active | Not Active | Not Active | Not Active | Not Active | Not Active | Not Active | Not Active | –
CN/C(=N\CCSCc1nc[nH]c1C)NC#N [CIMETIDINE] | Not Active | Not Active | Not Active | Not Active | Not Active | Not Active | Not Active | Not Active | Not Active | –
C[n+]1ccc(-c2cc[n+](C)cc2)cc1.[Cl-].[Cl-] [PARAQUAT DICHLORIDE] | Not Active | Not Active | Not Active | Not Active | Not Active | Not Active | Not Active | Not Active | Not Active | –
CCCN(CCC)S(=O)(=O)c1ccc(C(=O)O)cc1 [PROBENECID] | Not Active | Not Active | Not Active | Not Active | Not Active | Not Active | Not Active | Not Active | Not Active | –
